Laboratory results taken from ChEMBL document CHEMBL1201862, “PubChem BioAssay data set” (2004).
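Values below derive from 48-hour exposures of cells grown in 96-well plates, with endpoints linearly interpolated between the two concentrations bracketing the appropriate inhibition level. At the GI50, growth is halved.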 Active and inactive are the calls of the source. Cut-off read from the data, not from the text of the source: active = GI50 up to about 1.1 µM and inactive = higher. Non-standard residues stand in square brackets, D forms with d. Residues, ends and D or L forms follow the SMILES beside them. ξ: configuration not given here. Pen = CC(C)(S)[C@H](N)C(=O)O; ξL = CC(C)CC(N)C(=O)O

Assays:
Test in all cases: NCI-60 cell line screen, 48 h
IGROV-1 = tested on: IGROV-1
LOX IMVI = tested on: LOX IMVI
MCF7 = tested on: MCF7
RXF 393 = tested on: RXF 393
K562 = tested on: K562
SF-295 = tested on: SF-295
HOP-62 = tested on: HOP-62
A549 = tested on: A549
OVCAR-4 = tested on: OVCAR-4
U-251 = tested on: U-251
KM12 = tested on: KM12
OVCAR-3 = tested on: OVCAR-3
HL-60 = tested on: HL-60
NCI-H23 = tested on: NCI-H23
SK-MEL-2 = tested on: SK-MEL-2
NCI-H522 = tested on: NCI-H522
NCI-H226 = tested on: NCI-H226
SN12C = tested on: SN12C
HCT-116 = tested on: HCT-116
EKVX = tested on: EKVX

Measured: GI50

CCCCCCSc1nc(N)nc2nc[nH]c12
inactive: IGROV-1 30.5 µM | LOX IMVI 26.1 µM | MCF7 30.5 µM | RXF 393 32.7 µM | K562 32 µM | SF-295 59.6 µM | HOP-62 34.5 µM | A549 30 µM | OVCAR-4 52.7 µM | U-251 35.4 µM | KM12 55.6 µM | OVCAR-3 40.2 µM | HL-60 19.6 µM | NCI-H23 31.8 µM | SK-MEL-2 18.4 µM | NCI-H522 15.7 µM | NCI-H226 32.1 µM | SN12C 36.6 µM | HCT-116 35.2 µM | EKVX 60.1 µM

CN(C1=NCCO1)c1cccc2ccccc12
inactive: IGROV-1 > 10 µM | LOX IMVI > 10 µM | MCF7 > 10 µM | RXF 393 > 10 µM | K562 > 10 µM | SF-295 > 10 µM | HOP-62 > 10 µM | A549 > 10 µM | OVCAR-4 > 10 µM | U-251 > 10 µM | KM12 > 10 µM | OVCAR-3 > 10 µM | HL-60 > 10 µM | NCI-H23 > 10 µM | SK-MEL-2 > 10 µM | NCI-H522 > 10 µM | NCI-H226 > 10 µM | SN12C > 10 µM | HCT-116 > 10 µM | EKVX > 10 µM

C=CCc1cccc2cc(C(=O)Nc3ccc(C)cc3)c(=N)oc12
inactive: IGROV-1 > 100 µM | LOX IMVI > 100 µM | MCF7 > 100 µM | RXF 393 > 100 µM | K562 > 100 µM | HOP-62 > 100 µM | A549 > 100 µM | OVCAR-4 > 100 µM | U-251 > 100 µM | KM12 > 100 µM | OVCAR-3 > 100 µM | HL-60 > 100 µM | NCI-H23 > 100 µM | SK-MEL-2 45.2 µM | NCI-H522 > 100 µM | NCI-H226 33.9 µM | SN12C > 100 µM | HCT-116 > 100 µM | EKVX > 100 µM

CCOC(=O)/C=C/c1c[nH]c(C(=O)OCC)c1
inactive: IGROV-1 > 100 µM | LOX IMVI > 100 µM | MCF7 > 100 µM | RXF 393 > 100 µM | K562 51.5 µM | SF-295 > 100 µM | HOP-62 > 100 µM | A549 > 100 µM | OVCAR-4 > 100 µM | U-251 > 100 µM | KM12 > 100 µM | OVCAR-3 > 100 µM | HL-60 > 100 µM | NCI-H23 > 100 µM | SK-MEL-2 > 100 µM | NCI-H522 > 90.8 µM | NCI-H226 > 100 µM | SN12C > 100 µM | HCT-116 > 100 µM | EKVX > 85.7 µM

Cc1cc(=O)n2nc(CCl)sc2n1
inactive: IGROV-1 14.9 µM | LOX IMVI 4.19 µM | MCF7 13.8 µM | RXF 393 5.94 µM | K562 17.8 µM | SF-295 19.3 µM | HOP-62 18.1 µM | A549 16.5 µM | OVCAR-4 17.8 µM | U-251 5.13 µM | KM12 12.1 µM | OVCAR-3 14.9 µM | HL-60 17.3 µM | NCI-H23 23.2 µM | SK-MEL-2 10.5 µM | NCI-H522 5.57 µM | NCI-H226 13.9 µM | SN12C 14.3 µM | HCT-116 12.4 µM | EKVX 17.4 µM

CSCC[C@H](NC(=O)C(CC(C)C)NC(=O)[C@H](Cc1c[nH]cn1)NC(=O)CNC(=O)[C@@H](NC(=O)[C@@H](C)NC(=O)[C@H](Cc1c[nH]c2ccccc12)NC(=O)[C@H](CCC(N)=O)NC(=O)[C@@H](N)CC(N)=O)C(C)(C)SC)C(N)=O (some centres undefined) (H-NQW[dA][Pen](Me)GH[ξL]M-NH2)
inactive: IGROV-1 > 100 µM | LOX IMVI > 100 µM | MCF7 > 100 µM | RXF 393 > 100 µM | K562 > 100 µM | SF-295 > 100 µM | HOP-62 > 100 µM | A549 > 100 µM | OVCAR-4 > 100 µM | U-251 > 100 µM | KM12 > 100 µM | OVCAR-3 > 100 µM | HL-60 > 100 µM | NCI-H23 > 100 µM | SK-MEL-2 > 100 µM | NCI-H522 > 100 µM | NCI-H226 > 100 µM | SN12C > 100 µM | HCT-116 > 100 µM | EKVX > 100 µM

Cc1cccc(C)c1NC(=O)Nc1ccc(S(N)(=O)=O)cc1
inactive: IGROV-1 > 100 µM | LOX IMVI > 100 µM | MCF7 > 100 µM | RXF 393 > 100 µM | K562 > 100 µM | SF-295 > 100 µM | HOP-62 > 100 µM | A549 > 100 µM | OVCAR-4 > 100 µM | U-251 > 100 µM | KM12 > 100 µM | OVCAR-3 > 100 µM | HL-60 > 100 µM | NCI-H23 > 100 µM | SK-MEL-2 > 100 µM | NCI-H522 > 100 µM | NCI-H226 > 100 µM | SN12C > 100 µM | HCT-116 > 100 µM | EKVX > 100 µM

COC(=O)C1C(O)C(C)C(O)C(C)(O)/C=C\C=C(C)C(=O)Nc2c(C)c(OC(C)=O)c3c(c2O)C(=O)C(C)=C2OCOC(=C23)C(C)=CC(C)(O)C(O)C(C)C1OC(C)=O (centres undefined)
inactive: IGROV-1 30.1 µM | LOX IMVI 20.4 µM | MCF7 18 µM | RXF 393 22.4 µM | K562 37.4 µM | SF-295 80.4 µM | HOP-62 > 86.3 µM | A549 > 100 µM | OVCAR-4 75 µM | U-251 57.4 µM | KM12 26.7 µM | OVCAR-3 27.7 µM | HL-60 28.4 µM | NCI-H23 24.4 µM | SK-MEL-2 19.6 µM | NCI-H522 32.4 µM | NCI-H226 63.5 µM | SN12C 24 µM | HCT-116 21.4 µM | EKVX 34.1 µM

C[S+](C)CC1OC(n2cnc3c(N)ncnc32)C(O)C1O (centres undefined)
inactive: IGROV-1 > 225 µM | LOX IMVI > 225 µM | MCF7 > 225 µM | RXF 393 > 225 µM | K562 > 225 µM | SF-295 > 225 µM | HOP-62 > 225 µM | A549 > 225 µM | OVCAR-4 > 225 µM | U-251 > 225 µM | KM12 > 225 µM | OVCAR-3 > 225 µM | HL-60 > 225 µM | NCI-H23 > 225 µM | SK-MEL-2 > 225 µM | NCI-H522 > 225 µM | NCI-H226 > 225 µM | SN12C > 178 µM | HCT-116 > 225 µM | EKVX > 225 µM

O=C1C=C/C(=C/[C@H]2SSC=C[C@]23C=CC(=O)C3)C1
inactive: IGROV-1 17.8 µM | LOX IMVI 10.3 µM | MCF7 5.79 µM | RXF 393 13.3 µM | K562 5.3 µM | SF-295 30.7 µM | HOP-62 27.9 µM | A549 22.8 µM | OVCAR-4 30 µM | U-251 28.5 µM | KM12 21.3 µM | OVCAR-3 26.7 µM | HL-60 2.38 µM | NCI-H23 19.2 µM | SK-MEL-2 20 µM | NCI-H522 11 µM | NCI-H226 6.41 µM | SN12C 19.3 µM | HCT-116 7.36 µM | EKVX 17.5 µM
